Assay results published in US20020132281A1, “Secretases related to alzheimer's dementia” (priority 1998, published 2002).
“Also recorded” adds a separate entry of the source. One block for each compound: values may come before it. Square brackets hold non-standard residues; d marks the D form. Peptide text beside a SMILES is read from it. * marks the point of attachment. Sta = CC(C)C[C@H](N)[C@@H](O)CC(=O)O; Isovaleryl = CC(C)CC(=O)*

How the values were obtained:
[1] = system: β-secretase endoprotease activity in chromaffin vesicle lysate; assay: Protease inhibitors of β-secretase endoprotease activity in chromaffin vesicle lysate (Z*Val-Lys-Met-MCA cleavage, with aminopeptidase M); type: biochemical, bovine; conditions: for inhibition of β-secretase endoprotease activity in the lysate, in words: chromaffin vesicle lysate; for % CONTROL (β-secretase endoprotease activity): pH 5.5, with aminopeptidase M, activity as % of no-inhibitor control
Experimental: (§1) The β-secretase endoprotease activity was identified by incubating the chromaffin vesicle lysate (2-10 μl of 10-20 mg protein/ml) with the Z*Val-Lys-Met-MCA substrate (100 μM final concentration) and detecting AMC fluorescence. The chromaffin vesicle lysate was prepared as described in Example I. The endoprotease activity was determined as a function of pH by varying the pH of the incubation solution between 3.0 to 8.0 in 0.5 pH increments. Citric acid, sodium phosphate, and Tris-HCl buffers (100 mM final concentration) were used to adjust the pH of the incubation solutions between 3.0 to 5.5, 6.0 to 7.5, and 8.0, respectively. Duplicate samples at each pH increment (100 μl each) were distributed among 22 wells in a covered microtiter well plate and incubated at 37° C. for 8 hours in a water bath.
(§2) As discussed above, endoprotease cleavage between the Met-MCA bond in the Z*Val-Lys-Met-MCA substrate produces fluorescent AMC, but endoprotease cleavage between the Lys-Met or Val-Lys bonds in that substrate produces non-fluorescent Lys-Met-MCA and Met-MCA peptides. To insure that the latter two endoprotease cleavages were detected, aminopeptidase M (20 μg/ml final concentration, BOEHRINGER […]) was added to each incubation solutions to produce fluorescent AMC from the Lys-Met-MCA and Met-MCA peptides. Prior to adding the aminopeptidase M, each incubation solution was adjusted to a pH 8.3 using Tris-HCl because aminopeptidase M functions at a basic pH. A second incubation at 37° C. for 1 hour in the water bath was conducted to complete the aminopeptidase M reaction.
Upon termination of that second incubation, AMC fluorescence was assayed using a fluorometer (IDEXX fluorometer, FCA Fluorescence Concentration Analyzer, cat. no. 10-105-2, BAXTER HEALTH CARE CORP., Mundelein, Ill.) at excitation and emission wavelengths of 365 and 450 nm, respectively. Standard AMC concentrations were also measured to quantitate relative fluorescence with the molar amount (pmol) of AMC generated by the secretase. The resulting AMC fluorescence reflects the endoprotease activity in cleaving either the Met-MCA, Lys-Met. and Val-Lys bonds in the Z*Val-Lys-Met-MCA substrate.
The effect of the aminopeptidase M and the basic pH buffer used in the β-secretase endoprotease activity assay was determined. The assay was conducted as described in Example VIII with DTT. Three assays were conducted, one with aminopeptidase M in its basic pH buffer, another with the basic pH buffer but not aminopeptidase M, and a third without either the buffer or the aminopeptidase M. Briefly, the chromaffin vesicle lysate and the substrate Z*Val-Lys-Met-MCA were incubated for 30 minutes at a specified pH and the resulting fluorescence measured. The aminopeptidase M in the basic pH buffer or that buffer alone (final concentration of 75 mM Tris-HCl pH 8.2) was added to the assay and incubated an additional 60 minutes at 37° C. […] The assay conducted with aminopeptidase M and its basic pH buffer and that of the control assay having just the basic pH buffer produced approximately the same amount of fluorescence.
The effect of various protease inhibitors on β-secretase endoprotease activity in the lysate was determined at the pH optimum 5.5 in the assay described in Example IX containing aminopeptidase M. Protease inhibitors specific for various protease classes were used. The protease inhibitor was added to each assay at the start of the reaction at the appropriate concentration. The extent of inhibition was expressed as a percentage of the activity without the inhibitor (control). Triplicate assays varied by less than 10%.

[2] = system: Peak II β-secretase endoprotease activity; assay: Protease inhibitors of β-secretase endoprotease activity in Peak II; type: biochemical, bovine; conditions: for Peak II (%) of control: control (no inhibitor) = 100
Experimental: (§3) The protease inhibitor was added to each assay at the start of the reaction at the appropriate concentration. The extent of inhibition was expressed as a percentage of the activity without the inhibitor (control).
(§4) The contents of the eluted Con-A bound fraction were fractioned according to molecular size using a Sephacryl S200 column (Krieger, T. K. and Hook, V. Y. H. ibid.) .

[3] = system: Peak I β-secretase endoprotease activity; assay: Protease inhibitors of β-secretase endoprotease activity in Peak I; type: biochemical, bovine; conditions: for Peak I (%) of control: control (no inhibitor) = 100
Experimental: as §3, §4

chromaffin cells = assay: Aβ-peptide secretion by primary chromaffin cell cultures (RIA of Aβ1-40 in media); type: cell-based, bovine; conditions: 15 minutes
Experimental: Primary chromaffin cell cultures containing approximately 2 million cells in each culture were produced using established methods (Hook et al., ibid.; and Tezapsidis et al., ibid.). Exocytosis of the contents of the vesicles in such cells was induced by exposing the cells to KCl (50 mM) or nicotine (10 μM) for 15 minutes.

[4] = system: β-secretase endoprotease activity; assay: β-secretase endoprotease activity with/without DTT in fractions obtained during isolation of chromaffin vesicles; type: biochemical, bovine; conditions: pH 5.5
Experimental: The effect of the reducing agent dithiothreitol (DTT) on β-secretase endoprotease activity was determined using the assay described in Example III. Briefly, the lysed vesicles were incubated with the substrate Z*Val-Lys-Met-MCA in the presence or absence of 1 mM DTT and the resulting fluorescence plotted as a function of pH. Both with and without DTT, β-secretase endoprotease activity was detected and in both cases that activity had pH optimum of about 4.0 to 6.0, which is consistent with the intravesicular pH of chromaffin vesicles.
The β-secretase endoprotease activity of fractions obtained during the isolation procedure described in Example I was determined at the pH optimum of 5.5, with and without DTT using the assay described in Example VII.

[5] = system: β-secretase endoprotease activity in chromaffin vesicles; assay: Effect of reducing agent DTT on β-secretase endoprotease activity in chromaffin vesicle lysate; type: biochemical, bovine; conditions: 1 mM DTT vs absence of DTT; lysed vesicles
Experimental: as §1, with “Duplicate samples at each pH increment (100 μl each) were distributed among 22 wells in a covered microtiter well plate and incubated at 37° C. for 8 hours in a water bath.” left out
as §2, with “Prior to adding the aminopeptidase M, each incubation solution was adjusted to a pH 8.3 using Tris-HCl because aminopeptidase M functions at a basic pH. A second incubation at 37° C. for 1 hour in the water bath was conducted to complete the aminopeptidase M reaction.” left out
The effect of the reducing agent dithiothreitol (DTT) on β-secretase endoprotease activity was determined using the assay described in Example III. […]

SMILES: O=S(=O)(F)Cc1ccccc1 [PMSF, phenylmethylsulfonyl fluoride]
inhibition of β-secretase endoprotease activity in the lysate, in words [1]: significantly inhibited
% CONTROL (β-secretase endoprotease activity) ([1]; inhibitor 100 μM): 58%

% CONTROL (β-secretase endoprotease activity) ([1]; inhibitor 1 mM): 100%
Peak II (%) of control ([2]; inhibitor 1 mM): 138%
Peak I (%) of control ([3]; inhibitor 1 mM): 99%
SMILES: O=C(O)CN(CCN(CC(=O)O)CC(=O)O)CC(=O)O [EDTA, ethylenediaminetetraacetic acid]

SMILES: CC(C)C[C@H](NC(=O)[C@@H](NC(=O)N[C@@H](Cc1ccccc1)C(=O)O)[C@@H]1CCN=C(N)N1)C(=O)N[C@H](C=O)Cc1ccccc1 [Chymostatin]
inhibition of β-secretase endoprotease activity in the lysate, in words [1]: greatly inhibited
% CONTROL (β-secretase endoprotease activity) ([1]; inhibitor 10 μM): 11%
inhibition of Peak II activity, in words [2]: maximally inhibited; also recorded: inhibited less than that of the lysate
Peak II (%) of control ([2]; inhibitor 10 μM): 35%
inhibition of Peak I activity, in words [3]: maximally inhibited; also recorded: inhibited less than that of the lysate
Peak I (%) of control ([3]; inhibitor 10 μM): 0%

% CONTROL (β-secretase endoprotease activity) ([1]; inhibitor 1 mM): 99%
Peak II (%) of control ([2]; inhibitor 1 mM): 142%
Peak I (%) of control ([3]; inhibitor 1 mM): 108%
SMILES: O=C(O)CN(CCOCCOCCN(CC(=O)O)CC(=O)O)CC(=O)O [EGTA]

inhibition of β-secretase endoprotease activity in the lysate, in words [1]: completely inhibited
% CONTROL (β-secretase endoprotease activity) ([1]; inhibitor 10 μM): 0%
Peak II (%) of control ([2]; inhibitor 10 μM): 0%
Peak I (%) of control ([3]; inhibitor 10 μM): 0%
SMILES: CC(C)CCNC(=O)[C@H](CC(C)C)NC(=O)[C@H]1O[C@@H]1C(=O)O [E64c]
inhibition of Peak II activity, in words [2]: maximally inhibited; also recorded: completely inhibited
inhibition of Peak I activity, in words [3]: maximally inhibited; also recorded: completely inhibited

SMILES: CN1CCCC1c1cccnc1 (centres unmarked) [nicotine]
increase in the concentration of Aβ1-40 peptide in the media relative to control media (chromaffin cells; nicotine 10 μM): ~550 fold

RATIO of activities (with/without DTT) ([4]; Adrenal Medulla Homgenate): 4.7
RATIO of activities (with/without DTT) ([4]; Pellet from 1st 8,800 rpm Centrifugation (crude vesicle fraction)): 3.2
RATIO of activities (with/without DTT) ([4]; Pellet from 2nd 8,800 rpm Centrifugation (washed vesicle fraction)): 6.3
RATIO of activities (with/without DTT) ([4]; Pellet from 1,500 rpm Centrifugation (nuclear fraction)): 11.6
RATIO of activities (with/without DTT) ([4]; Pellet from 25,000 rpm Discontinuous Gradient Centrifugation (vesicle fraction)): 11.0
increase in the β-secretase endoprotease activity [5]: approximately 5 fold
SMILES: O[C@H](CS)[C@H](O)CS (racemic) [DTT, dithiothreitol]

SMILES: [Cl-].[K+] [KCl, potassium chloride]
increase in the concentration of Aβ1-40 peptide in the media relative to control media (chromaffin cells; KCl 50 mM): approximately 350 fold

SMILES: CC(=O)N[C@@H](CC(C)C)C(=O)N[C@@H](CC(C)C)C(=O)N[C@H](C=O)CCCNC(=N)N [Leupeptin]
inhibition of β-secretase endoprotease activity in the lysate, in words [1]: completely inhibited
% CONTROL (β-secretase endoprotease activity) ([1]; inhibitor 100 μM): 0%
inhibition of Peak II activity, in words [2]: maximally inhibited; also recorded: completely inhibited
Peak II (%) of control ([2]; inhibitor 100 μM): 0%
inhibition of Peak I activity, in words [3]: maximally inhibited; also recorded: completely inhibited
Peak I (%) of control ([3]; inhibitor 100 μM): 0%

SMILES: CC(C)CC(=O)N[C@H](C(=O)N[C@H](C(=O)N[C@@H](CC(C)C)[C@@H](O)CC(=O)N[C@@H](C)C(=O)N[C@@H](CC(C)C)[C@@H](O)CC(=O)O)C(C)C)C(C)C [Pepstatin A] (Isovaleryl-VV[Sta]A[Sta]-OH)
inhibition of β-secretase endoprotease activity in the lysate, in words [1]: slightly inhibited
% CONTROL (β-secretase endoprotease activity) ([1]; inhibitor 10 μM): 78%
inhibition of Peak II activity, in words [2]: did not significantly inhibit; also recorded: increased the activity
Peak II (%) of control ([2]; inhibitor 100 μM): 132%
inhibition of Peak I activity, in words [3]: did not significantly inhibit; also recorded: slightly inhibited
Peak I (%) of control ([3]; inhibitor 100 μM): 85%

inhibition of Peak II activity, in words [2]: only slightly inhibited
Peak II (%) of control ([2]; inhibitor 500 μM): 72%
inhibition of Peak I activity, in words [3]: significantly inhibited
Peak I (%) of control ([3]; inhibitor 500 μM): 31%
SMILES: c1cnc2c(c1)ccc1cccnc12 [1,10 Phenanthroline]

SMILES: O=C(O)c1cc[c]([Hg][OH])cc1 [pHMB]
inhibition of β-secretase endoprotease activity in the lysate, in words [1]: greatly inhibited
% CONTROL (β-secretase endoprotease activity) ([1]; inhibitor 1 mM): 35%
inhibition of Peak II activity, in words [2]: slightly inhibited; also recorded: inhibited less than that of the lysate
Peak II (%) of control ([2]; inhibitor 1 mM): 68%
inhibition of Peak I activity, in words [3]: slightly inhibited; also recorded: inhibited less than that of the lysate
Peak I (%) of control ([3]; inhibitor 1 mM): 67%
